As a reminder, the MIC is the lowest concentration found to suppress growth.

Here are results for eight compounds from patent US20230248788A1, “COMPOSITIONS AND RELATED METHODS FOR SUPPORTING COMPANION ANIMALS WITH GASTROINTESTINAL DISORDERS” (priority 2020, published 2023).

≈ marks a conversion by molar mass, not a printed value. Read-outs that look alike come from different tables or passages of the source.

Experiment [1] has as its system L. brevis WF-1B. As to the kind of experiment: Antibiotic susceptibility assay, broth microdilution. The experiment is classed as cell-based, Levilactobacillus brevis. The note with it: for MIC: antibiotic against L. brevis WF-1B; for susceptibility of L. brevis WF-1B to the antibiotic: MIC compared with EFSA cut-off value. How it is done: Broth microdilution was used to determine the susceptibility of the L. brevis WF-1B isolate against eight commonly used clinical antibiotics. Broth micro-dilution was performed following the methods according to: International Organization for Standardization, Milk and milk products—Determination of the minimal inhibitory concentration (MIC) of antibiotics applicable to bifidobacteria and non-enterrococcal lactic acid bacteria (LAB) (ISO 10932:2012). Antibiotic stock solutions were prepared following the methods according to: CLSI, Performance Standards for Antimicrobial Susceptibility Testing, 23rd edition, CLSI Standard M100, Wayne, Pa.: Clinical and Laboratory Standards Institute; 2013. The measured minimum inhibitory concentrations (MICs) and microbiological cut-off values from the antibiotic susceptibility assays for L. brevis WF-1B are shown below in Table 5.
(In general: Broth dilution looks for growth in wells or tubes with falling amounts of substance.)

In experiment [2] the test system is L. brevis WF-1B. The note with it: EFSA microbiological cut-off value; cited from earlier work.
Setting [3] is: Levilactobacillus brevis, WF1B, read-out: MIC.

As for `CCC[C@@H]1C[C@@H](C(=O)N[C@@H]([C@H]2O[C@H](SC)[C@H](O)[C@@H](O)[C@H]2O)[C@H](C)Cl)N(C)C1` [Clindamycin], in experiment [1] (setting [3]), the MIC is 8 µg/mL (≈ 18.8 µM).
Regarding Gentamicin, in experiment [1], the “susceptibility of L. brevis WF-1B to the antibiotic” value (shortened to “susceptibility of L. brevis WF-1B”) is “sensitive” and the MIC was 3 µg/mL. Besides, the Cut-off value in experiment [2] was 16 µg/mL.
With `CC[C@H]1OC(=O)[C@H](C)[C@@H](O[C@H]2C[C@@](C)(OC)[C@@H](O)[C@H](C)O2)[C@H](C)[C@@H](O[C@@H]2O[C@H](C)C[C@H](N(C)C)[C@H]2O)[C@](C)(O)C[C@@H](C)C(=O)[C@H](C)[C@@H](O)[C@]1(C)O` [Erythromycin], in experiment [1] (setting [3]), the MIC is 0.83 µg/mL (≈ 1.13 µM). Moreover, the “susceptibility of L. brevis WF-1B” value in experiment [1] is listed as “sensitive”. Also, the Cut-off value in experiment [2] is 1 µg/mL.
In the case of `CN(C)[C@@H]1C(O)=C(C(N)=O)C(=O)[C@@]2(O)C(O)=C3C(=O)c4c(O)cccc4[C@@](C)(O)[C@H]3C[C@@H]12` [Tetracycline], in experiment [1] (setting [3]), the MIC turned out to be 64 µg/mL (≈ 144 µM).
In the case of `NC[C@H]1O[C@H](O[C@H]2[C@H](O)[C@@H](O[C@H]3O[C@H](CO)[C@@H](O)[C@H](N)[C@H]3O)[C@H](N)C[C@@H]2N)[C@H](O)[C@@H](O)[C@@H]1O` [Kanamycin], in experiment [1] (setting [3]), the MIC was found to be 85 µg/mL (≈ 175 µM).
Take `[H]/N=C(/N)N[C@H]1[C@H](O)[C@@H](O)[C@H](O[C@@H]2O[C@@H](C)[C@](O)(C=O)[C@H]2O[C@@H]2O[C@@H](CO)[C@H](O)[C@@H](O)[C@@H]2NC)[C@@H](N/C(N)=N\[H])[C@@H]1O` [Streptomycin]: in experiment [1] (setting [3]), the MIC is 8 µg/mL (≈ 13.8 µM). Besides, the “susceptibility of L. brevis WF-1B” value in experiment [1] is reported as “sensitive”. The Cut-off value in experiment [2] is 64 µg/mL.
Take `CC1(C)S[C@@H]2[C@H](NC(=O)[C@H](N)c3ccccc3)C(=O)N2[C@H]1C(=O)O` [Ampicillin]: the MIC in experiment [1] (setting [3]) came to 8 µg/mL (≈ 22.9 µM). For the same compound, the “susceptibility of L. brevis WF-1B” value in experiment [1] is “resistant”. The Cut-off value in experiment [2] is 2 µg/mL.
`O=C(N[C@H](CO)[C@H](O)c1ccc([N+](=O)[O-])cc1)C(Cl)Cl` [Chloramphenicol]: the MIC in experiment [1] (setting [3]) amounted to 16 µg/mL (≈ 49.5 µM). The “susceptibility of L. brevis WF-1B” value in experiment [1] is “resistant”. In experiment [2], the Cut-off value was 4 µg/mL.
